Entries after “also recorded” stand apart in the source; their conditions may differ.
Key:
[1] = test system: prostaglandin E2 (PGE2) production by human vulvar fibroblasts; assay: In vitro LPV model: PGE2 production by patient vestibular or vulvar fibroblasts; type: cell-based; settings: for PGE2 levels: post-treatment regimen: IL-1β 30 min first, then 5 nM for 18 hours plus booster dose for 6 hr, already activated cells, FIG. 4C; for PGE2 production: pre-treatment regimen, 5 nM, activated with IL-1β (10 pg/ml) 48 hr, vestibular and external vulvar fibroblasts, FIG. 4A
Description: (§1) FIGS. 4A, 4B, 4C, and 4D are a set of diagrams showing that PGE2 and IL-6 production is reduced by compounds of Formula (I). Patient vestibular or vulvar fibroblasts were pre-treated for 10 hours with Maresin land epi-Maresin 1 at a 5 nM concentration, then activated with IL-1β (Panel A; 10 pg/ml) or bradykinin (Panel B; 100 nM) for 48 hr. Culture media were collected and analyzed for PGE2 (Panel A) or IL-6 (Panel B) content. Patient fibroblasts were also activated first with IL-1β for 30 min then treated with 5 nM Maresin 1 for 18 hours, followed by a booster dose for 6 hr. Culture media were collected and analyzed for PGE2 (Panel C) or IL-6 (Panel D) content. Mean+/−SEM of n=3, ANOVA *p<0.05 vs. activation only (no compounds of Formula (I) (F (I))).
(§2) In this example, a fibroblast-based in vitro LPV model was established. Briefly, fibroblast strains were obtained from two regions (FIG. 1) of the lower genital tract of localized provoked vulvodynia (LPV) cases and pain-free controls in the manner described in Falsetta et al. Am J Obstet Gynecol 2015, vol. 213, pp. 38 e1-12 and Foster et al., Pain 2015, vol. 156, pp. 386-96.
(§3) Over 30 paired fibroblast strains obtained from LPV-afflicted cases (fulfilling Friedrich's Criteria)^25 and age/race-matched (critical variables influencing LPV),^26, 27 pain-free controls were obtained. All subjects who contributed to the library were premenopausal, denied oral corticosteroids, non-steroidal, immunomodulatory, or anti-inflammatory medication use, and reported an absence of systemic/cutaneous inflammatory conditions at the time of sample collection. Mechanical pain thresholds were determined (via a method of limits) (0.5-5 N) using a Wagner algometer. Fibroblast identity was confirmed by microscopy and fibroblast markers (vimentin, collagen); only low passage (˜4) cells are used.
(§4) In this example, assays were carried out to investigate the ability of compounds of Formula (I) to reduce pro-inflammatory and pro-pain mediator production from primary human cells in the in vitro LPV model described in Example 1.
(§5) The inventors used one of two treatment regimens proven effective in vulvar fibroblasts and other cells at low/nanomolar concentrations (1-100 nM): 1) overnight pre-treatment, followed by another treatment 30 min prior to stimulation with pro-inflammatory stimuli for 48 hr with a third dose of a compound of Formula (I) at 24 hr post-challenge, or 2) post-treatment a compound of Formula (I) after a 30 min pre-treatment with inflammatory stimuli, followed by a booster dose 18 hr later. Both treatment regimens are of interest, as compounds of Formula (I) are active throughout the inflammatory process.^5-7 Even the compound of Formula (I) administered after LPV onset are likely to prevent the worsening or spread of LPV pain.

[2] = test system: interleukin-6 (IL-6) production by human vulvar fibroblasts; assay: In vitro LPV model: IL-6 production by patient vestibular or vulvar fibroblasts; type: cell-based; settings: for IL-6 levels: post-treatment regimen: IL-1β 30 min first, then 5 nM for 18 hours plus booster dose for 6 hr, already activated cells, FIG. 4D; for IL-6 production: pre-treatment regimen, 5 nM, activated with bradykinin (100 nM) 48 hr, vestibular and external vulvar fibroblasts, FIG. 4B
Description: as §1, §2, §3, §4, §5

[3] = test system: PGE2 production from mouse vulvar tissue; assay: Mouse vulvar explants (4 mm punch biopsy) stimulated with IL-1β: PGE2 production; type: cell-based; settings: FIG. 5
Description: FIG. 5 is a diagram showing that compounds of Formula (I) (F (I)) inhibit PGE2 production from mouse vulvar tissue. Mouse vulvar tissue (4 mm punch biopsies) was collected and bisected then pre-treated in culture medium with either Maresin 1 at indicated concentrations for 18 hours, followed by an additional 18 hours stimulation with IL-1β (10 pg/ml). Culture medium was collected and analyzed for PGE2 content. Mean+/−SEM; n=3 replicate cultures. ANOVA * p<0.05 vs. vehicle.
Inventors first confirmed that mouse vulvar tissues responded to compounds of Formula (I) treatment in vitro by culturing mouse vulvar explants (4 mm punch biopsy). The explants were stimulated with IL-1β, and then assays were carried to assess the ability of Maresin 1 to reduce PGE2 production under the established pre-treatment regimen.
It was also determined that these mice expressed several SPM receptors (e.g., ALX, GPR18). Therefore, inventors proceeded with testing responses to compounds of Formula (I) in the mouse model.

[4] = test system: vulvar allodynia (pain threshold); assay: Mouse model of LPV: Zymosan-induced vulvar allodynia, pain threshold by electronic von Frey; type: in vivo, C57BL/6 mouse; settings: C57BL/6 mice with established Zymosan-induced allodynia, topical daily 1 μg/mouse/day for 4 weeks
From the text: FIGS. 6A, 6B and 6C are a set of photographs and diagrams showing pain testing for in vivo mouse vulvodynia model. Panel A: After Zymosan injection, inflammation and redness become apparent. Arrow indicates injection site. Panel B: Image showing how an electronic von Frey hair (Mousemet) is used to apply force to the mouse vulva. Panel C: Schematic of in vivo mouse model to establish then resolve vulvar allodynia. FIG. 7 is a diagram showing representative pain profile for a C57BL/6 mouse. […] In the mouse model, Zymosan (a pro-inflammatory yeast cell wall preparation) was used to induce sustained vulvar allodynia, measured by pain threshold testing. Inventors initially used a manual von Frey system (MvF)^24, but later switched to an electronic system as detailed herein. […] However, inventors implemented several modifications to improve the robustness of the model including the following: 1) use a genetically tractable inbred strain; 2) validation of the use of an electronic von Frey (EvF) system; 3) assessment of the impact of behavioral conditioning on pain response; 4) weekly collection of vulvovaginal lavages for pro-inflammatory mediator quantification; and 5) testing the ability of a selected compound of Formula (I) (e.g., Maresin 1) to modulate pain and inflammation in our new model. […]

[5] = test system: PGE2 in vaginal lavage; assay: Mouse model of LPV: PGE2 content in vaginal lavage; type: in vivo, C57BL/6 mouse; settings: C57BL/6 mice with established Zymosan-induced allodynia, topical daily 1 μg/mouse/day for 4 weeks, FIG. 8
From the text: FIG. 8 is a diagram showing that PGE2 in vaginal lavage is associated with pain threshold. After induction of allodynia for up to 6 weeks (indicated by reduced pain threshold, red line), Maresin 1 was applied to C57BL/6 mouse vulvas to reduce pain and increase pain threshold. PGE2 content in vaginal lavage samples (blue line) […], indicating pain-associated inflammation waning with treatment. SEM shown, n=8.
Using this approach, inventors confirmed that one could induce vulvar allodynia, measure pain responses via mechanical threshold determination, and assess treatment responses. However, inventors implemented several modifications to improve the robustness of the model including the following: 1) use a genetically tractable inbred strain; 2) validation of the use of an electronic von Frey (EvF) system; 3) assessment of the impact of behavioral conditioning on pain response; 4) weekly collection of vulvovaginal lavages for pro-inflammatory mediator quantification; and 5) testing the ability of a selected compound of Formula (I) (e.g., Maresin 1) to modulate pain and inflammation in our new model. […]

CC/C=C\C/C=C\C[C@H](O)\C=C/C=C/C=C/[C@H](O)C/C=C\CCC(=O)O [Maresin 1, 7R,14S-dihydroxy-docosa-4Z,8E,10E,12Z,16Z,19Z-hexaenoic acid]
PGE2 levels [1]: significantly reduced
PGE2 levels ([1]; listed as Maresin-1): highly effective in reducing
PGE2 production [1]: significantly reduced
IL-6 levels [2]: significantly reduced
IL-6 levels ([2]; listed as Maresin-1): highly effective in reducing
IL-6 production [2]: significantly reduced
PGE2 responses following IL-1β treatment ([3]; pre-treated 18 hours, then 18 hours IL-1β (10 pg/ml)): significantly suppressed
lowest dose with significant suppression of PGE2 response ([3]; pre-treatment regimen, IL-1β (10 pg/ml)): 1 nM
pain threshold ([4]; FIG. 7, 8): complete restoration to the pre-induction thresholds; also recorded: values returned to baseline
pain threshold ([4]; FIG. 7, 8, listed as Maresin-1): increased pain thresholds
PGE2 levels in vulvovaginal lavage [5]: suppressed and maintained at levels below baseline
PGE2 levels in vulvovaginal lavage ([5]; listed as Maresin-1): suppressing PGE2 levels

CC/C=C\C/C=C\C[C@H](O)\C=C/C=C/C=C/[C@@H](O)C/C=C\CCC(=O)O [epi-Maresin 1, 7S,14S-dihydroxy-docosa-4Z,8E,10E,12Z,16Z,19Z-hexaenoic acid]
PGE2 production [1]: significantly reduced
IL-6 production [2]: significantly reduced

— US11400057B2, “Treatment of vulvar pain” (University of Rochester, priority 2018, dated 2022)
